Four molecules from ChEMBL document CHEMBL1137286, “Vialinin B, a novel potent inhibitor of TNF-alpha production, isolated from an edible mushroom, Thelephora vialis” (Bioorg Med Chem Lett, 2006) can be followed below.

The test system of this test is RBL-2H3. Nature of the test: Inhibition of DNP7-BSA antigen-induced TNFalpha release in rat RBL-2H3 cells. It counts as functional, cell-based.

Molecule `Oc1ccc(-c2c(O)c(O)c3c(oc4cc(O)c(O)cc43)c2O)cc1` [CYCLOLEUCOMELONE] registered an IC50 of 3.5 µM.
Turning to `O=C(Cc1ccccc1)Oc1c(-c2ccc(O)cc2)c(OC(=O)Cc2ccccc2)c2oc3cc(O)c(O)cc3c2c1OC(=O)Cc1ccccc1` [GANBAJUNIN B], half-maximal inhibition (IC50) was put at 5 µM.
Molecule `C=CC[C@@H]1/C=C(\C)C[C@H](C)C[C@H](OC)[C@H]2O[C@@](O)(C(=O)C(=O)N3CCCC[C@H]3C(=O)O[C@H](/C(C)=C/[C@@H]3CC[C@@H](O)[C@H](OC)C3)[C@H](C)[C@@H](O)CC1=O)[C@H](C)C[C@@H]2OC` [TACROLIMUS ANHYDROUS] yielded an IC50 of 0.00025 µM.
As for `O=C(Cc1ccccc1)Oc1c(-c2ccc(O)cc2)c(O)c2oc3cc(O)c(O)cc3c2c1OC(=O)Cc1ccccc1` [VIALININ B], half-maximal inhibition (IC50) required 2e-05 µM.
